This note sets out measurements from patent US8329913B2, “Carbazole derivative, solvate thereof, or pharmaceutically acceptable salt thereof” (Zeria Pharmaceutical Co., Ltd., priority 2004, dated 2012).

The target of this test is T1, human PPARα (Homo sapiens, UniProt Q07869).
T1 construct: 1.6 kb of DNA fragment including human PPARα gene was collected from the gel; expressed in transfected cells; host or cells: CV-1 cells, transient transfection with pCI-hPPARa, pCI-hRXRa and the reporter pGL3-PPRE3-TK
T1 sequence (Q07869 1-468): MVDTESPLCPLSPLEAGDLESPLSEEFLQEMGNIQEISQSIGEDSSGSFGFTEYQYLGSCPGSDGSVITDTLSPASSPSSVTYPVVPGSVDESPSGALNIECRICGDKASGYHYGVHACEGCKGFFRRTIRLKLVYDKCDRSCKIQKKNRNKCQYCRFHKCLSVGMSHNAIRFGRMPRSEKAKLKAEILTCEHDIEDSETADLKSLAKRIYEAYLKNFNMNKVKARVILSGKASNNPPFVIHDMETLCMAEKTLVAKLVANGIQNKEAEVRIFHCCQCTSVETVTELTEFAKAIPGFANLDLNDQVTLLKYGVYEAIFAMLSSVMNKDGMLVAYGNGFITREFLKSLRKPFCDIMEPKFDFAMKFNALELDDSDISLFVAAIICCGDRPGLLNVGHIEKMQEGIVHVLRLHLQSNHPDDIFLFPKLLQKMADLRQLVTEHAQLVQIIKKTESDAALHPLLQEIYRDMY
T1 sequence (P19793 1-462 partner): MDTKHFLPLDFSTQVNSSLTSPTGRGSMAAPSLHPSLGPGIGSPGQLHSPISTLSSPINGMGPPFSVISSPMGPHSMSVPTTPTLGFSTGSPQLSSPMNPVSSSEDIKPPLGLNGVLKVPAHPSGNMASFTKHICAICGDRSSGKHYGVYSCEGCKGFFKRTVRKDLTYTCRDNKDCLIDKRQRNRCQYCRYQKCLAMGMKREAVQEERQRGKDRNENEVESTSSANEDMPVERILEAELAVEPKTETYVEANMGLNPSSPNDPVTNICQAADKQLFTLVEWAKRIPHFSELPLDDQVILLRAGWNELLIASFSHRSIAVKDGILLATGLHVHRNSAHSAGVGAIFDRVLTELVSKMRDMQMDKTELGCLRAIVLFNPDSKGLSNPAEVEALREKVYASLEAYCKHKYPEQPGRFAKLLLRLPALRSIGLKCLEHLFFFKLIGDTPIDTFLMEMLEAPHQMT
Description: Human PPARα agonist assay (luciferase reporter in transfected CV-1 cells). The test is classed as cell-based. Conditions: at 1 μM test compound alone; 100% = 1 μM stimulant (GW7647) only; CV-1 cells expressing human PPARα and RXRα. The procedure:
CV-1 cells (96 well plate), where human PPARα and RXRα has expressed in the transient transfection of reporter plasmid (see reference 6a) were washed once with PBS (100 μL/well), and then supplemented with 100 μL/well of DMEM medium including 10% of fetal bovine serum to which test compounds at final concentrations of 10 nM, 30 nM, 100 nM, 300 nM, 1 μM, and 3 μM, as well as GW7647 (not limited to GW7647 shown as an example, but may be any PPARα agonist) at a final concentration of 1 nM as a stimulant were added, and incubated in a 5% CO2 incubator at 37° C. for 24 hours. After removing the medium, the CV-1 cells were washed once with PBS (100 μL/well), and supplemented with 60 μL/well of 1× Passive Lysis Buffer (manufactured by Promega Corporation). The CV-1 cells were incubated at room temperature for 30 minutes, stirred, and then by using Dual-Luciferase Reporter Assay System (manufactured by Promega Corporation), luciferase activities of firefly and renilla were measured using 1420 ARVO Multilabel Counter (manufactured by Wallac Oy). Also, the same experiments as that described above were respectively carried out for the cases where only the above-mentioned stimulant (10 nM, 100 nM, 1 μM) were used, where only the above-mentioned test compounds were used, or where neither was used (nonsupplemented), and luciferase activities of firefly and renilla were measured. Values corrected by dividing the firefly luciferase activities by the renilla luciferase activities were calculated as specific activities and used for evaluations. […]
Also, human PPARα agonist activities of the test compounds were evaluated by using a percentage (activity) where the specific activity when nonsupplemented is regarded as 0% and the specific activity in case only 1 μM stimulant was added is regarded as 100%, from the specific activity in case only the test compound is used.
CV-1 cells were cultured in DMEM medium (manufactured by Invitrogen Corporation) including 10% fetal bovine serum (manufactured by Dainippon Pharmaceutical Co., Ltd.) in 225T-Flask (manufactured by Corning Costar). The cells were detached by 0.5 g/L trypsin-0.2 g/L EDTA (ethylene diamine tetra-acetic acid) (manufactured by Invitrogen Corporation), and then suspended in the DMEM medium including 10% fetal bovine serum to a cell concentration of 2×10^5 cells/mL. Thereafter, the cells were seeded into 96 well plate at 2×10^4 cells/0.1 mL/well, incubated in the CO2 incubator at 37° C. overnight, and then the plasmids prepared by the above-mentioned reference 2a, reference 3a, and reference 4a were transfected into cells by using a lipofectamine reagent (manufactured by Invitrogen Corporation) according to the attached manual.
Namely, after CV-1 cells were cultured overnight, the cells were washed with PBS (100 μL/well). Thereafter the cells were incubated for 5 hours at 37° C./5% CO2 in the MEM medium (manufactured by Invitrogen Corporation) including 430 ng/mL of human PPARα expression plasmid (pCI-hPPARa) prepared by the reference 2a, 430 ng/mL of human RXRα expression plasmid (pCI-hRXRa) prepared by the reference 3a, and 140 ng/mL of the reporter plasmid (pGL3-PPRE3-TK) prepared by the reference 4a, 10 ng/mL of phRL-TK vector (manufactured by Promega Corporation) and 2 μL/mL of lipofectamine.
Background: A reporter such as luciferase makes a cellular process visible.
As to `COc1cc(Cn2c3ccccc3c3c(OCC(C)(C)C(=O)O)cccc32)ccc1OCc1nc(-c2ccccc2)oc1C` [Example 22, 3-{9-[3-methoxy-4-((5-methyl-2-phenyl-oxazole-4-yl)methoxy)-benzyl]-9H-carbazole-4-yloxy}-2,2-dimethyl-propionic acid], the “Human PPARα agonist activities, Activity % (at 1 μM)” value was determined as 40%.
With `COc1cc(Cn2c3ccccc3c3c(OCC(C)(C)C(=O)O)cccc32)ccc1OCc1nc(-c2ccco2)oc1C` [Example 23, 3-{9-[4-((2-(furan-2-yl)-5-methyl-oxazole-4-yl)methoxy)-3-methoxy-benzyl]-9H-carbazole-4-yloxy}-2,2-dimethyl-propionic acid], the “Human PPARα agonist activities, Activity % (at 1 μM)” value was found to be 69%.
As for `COc1cc(Cn2c3ccccc3c3c(OCC(C)(C)C(=O)O)cccc32)ccc1OCc1nc(-c2cccs2)oc1C` [Example 24, 3-{9-[3-methoxy-4-((5-methyl-2-(thiophene-2-yl)-oxazole-4-yl)methoxy)-benzyl]-9H-carbazole-4-yloxy}-2,2-dimethyl-propionic acid], the “Human PPARα agonist activities, Activity % (at 1 μM)” value was determined as 64%.
As for `COc1cc(Cn2c3ccccc3c3c(OCC(C)(C)C(=O)O)cccc32)ccc1OCc1nc(-c2ccncc2)oc1C` [Example 25, 3-{9-[3-methoxy-4-((5-methyl-2-pyridine-4-yl-oxazole-4-yl)methoxy)-benzyl]-9H-carbazole-4-yloxy}-2,2-dimethyl-propionic acid], the “Human PPARα agonist activities, Activity % (at 1 μM)” value is given as 47%.
As for `COc1cc(Cn2c3ccccc3c3c(OC(C)(C)C(=O)[O-])cccc32)ccc1OCc1nc(-c2ccccc2)oc1C.[Na+]` [Example 28, sodium 2-{9-[3-methoxy-4-((5-methyl-2-phenyl-oxazole-4-yl)methoxy)-benzyl]-9H-carbazole-4-yloxy}-2-methyl-propionate], the figure is 56%; as for `CCC(Oc1cccc2c1c1ccccc1n2Cc1ccc(OCc2nc(-c3ccccc3)oc2C)c(OC)c1)C(=O)[O-].[Na+]` (stereo not shown) [Example 31], 21%; as for `COc1cc(Cn2c3ccccc3c3c(OC(C)(C)C(=O)[O-])cccc32)ccc1OCc1nc(-c2cccs2)oc1C.[Na+]` [Example 32], 66%.
For the molecule `COc1cc(Cn2c3ccccc3c3c(OCC(C)(C)C(=O)[O-])cccc32)ccc1OCc1nc(-c2ccccc2)oc1C.[Na+]` [Example 34], the “Human PPARα agonist activities, Activity % (at 1 μM)” value worked out at 41%.
With `CC[C@H](Oc1cccc2c1c1ccccc1n2Cc1ccc(OCc2nc(-c3ccccc3)oc2C)c(OC)c1)C(=O)[O-].[Na+]` [Example 38, sodium (S)-(+)-2-{9-[3-methoxy-4-((5-methyl-2-phenyl-oxazole-4-yl)methoxy)-benzyl]-9H-carbazole-4-yloxy}butyrate], the “Human PPARα agonist activities, Activity % (at 1 μM)” value was determined as 32%.
As for `COc1cc(Cn2c3ccccc3c3c(O[C@H](C)C(=O)[O-])cccc32)ccc1OCc1nc(-c2ccccc2)oc1C.[Na+]` [Example 43, sodium (R)-2-{9-[3-methoxy-4-((5-methyl-2-phenyl-oxazole-4-yl)methoxy)-benzyl]-9H-carbazole-4-yloxy}propionate], the figure is 35%.
